Assay results published in patent US6410249B1, “Odorant receptors” (priority 1999, dated 2002).

How the values were obtained:
[1] = target: T1, receptor 5.24 (Carassius auratus, UniProt Q9PW88); test: cAMP accumulation in receptor 5.24-expressing HEK 293 cells; type: cell-based, goldfish; details: 0.1 mM or 10 mM
T1 construct: The receptor 5.24 full length cDNA detects 1-2 bands in genomic DNA blots; expressed in transfected cells; host or cells: HEK 293 cells expressing SV40 large T antigen (293-TSA)
T1 sequence (Q9PW88 25-877): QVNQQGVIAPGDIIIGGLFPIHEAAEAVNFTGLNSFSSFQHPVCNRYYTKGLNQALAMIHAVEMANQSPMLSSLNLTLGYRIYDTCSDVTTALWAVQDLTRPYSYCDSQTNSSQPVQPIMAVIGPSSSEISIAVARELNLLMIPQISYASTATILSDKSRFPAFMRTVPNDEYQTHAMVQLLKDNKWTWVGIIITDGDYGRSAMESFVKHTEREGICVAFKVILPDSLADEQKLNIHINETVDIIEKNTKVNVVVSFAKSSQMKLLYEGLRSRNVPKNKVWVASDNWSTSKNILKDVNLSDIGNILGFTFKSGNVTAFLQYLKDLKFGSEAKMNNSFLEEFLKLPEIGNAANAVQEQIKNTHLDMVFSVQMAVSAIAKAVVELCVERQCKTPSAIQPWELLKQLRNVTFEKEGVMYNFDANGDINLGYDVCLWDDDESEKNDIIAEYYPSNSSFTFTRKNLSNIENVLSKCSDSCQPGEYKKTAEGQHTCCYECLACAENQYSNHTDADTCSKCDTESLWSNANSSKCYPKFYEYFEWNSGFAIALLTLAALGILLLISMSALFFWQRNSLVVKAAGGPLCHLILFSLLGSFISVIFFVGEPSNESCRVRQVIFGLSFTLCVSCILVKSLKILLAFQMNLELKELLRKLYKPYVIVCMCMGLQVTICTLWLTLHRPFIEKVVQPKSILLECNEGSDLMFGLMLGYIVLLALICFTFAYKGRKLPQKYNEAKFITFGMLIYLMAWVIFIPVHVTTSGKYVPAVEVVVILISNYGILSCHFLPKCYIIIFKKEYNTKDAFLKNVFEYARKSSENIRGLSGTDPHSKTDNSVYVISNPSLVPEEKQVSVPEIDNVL
Source text: High-Affinity Binding of Radiolabeled L-Arginine to the Cloned Goldfish Odorant Receptor. To determine the affinity of the cloned goldfish amino acid receptor for basic amino acids, we characterized the ligand-receptor interaction by radiolabeled ligand binding to receptors expressed in mammalian cells. Human embryonic kidney (HEK) 293 cells were transfected with expression plasmids containing the receptor 5.24 cDNA insert. […] We next wished to determine what second messenger pathway receptor 5.24 couples to in HEK 293 cells. Control cells or cells expressing receptor 5.24 were exposed to varying concentrations of arginine and assayed for the accumulation of IP3 and cAMP.
IP3 and cAMP Measurements. For measurements of IP3 and cAMP, cell lines 5.24-20 and 2.2-9 (negative control) were plated at densities of 3.5×10^5 cells/well in 24 well plates and incubated overnight in DMEM containing 10% FBS. All subsequent manipulations prior to reaction termination were performed at 37° C. in 5% CO2. […] IP3 levels were determined by a radioreceptor competition assay (Dupont NEN). For cAMP measurements, after the 3 hour amino acid-free preincubation cells were washed once with PBS, preincubated for 15 min in PBS containing 0.5 mM IBMX, and exposed to odorants in 400 μl PBS/0.5 mM IBMX for 30 min. cAMP levels were determined by radioimmunoassay (DuPont NEN).

[2] = system: goldfish olfactory system; details: cited from earlier work
[3] = system: catfish olfactory neurons; details: 100 μM, catfish olfactory epithelium; cited from earlier work

Q: With N=C(N)NCCC[C@H](N)C(=O)O [L-Arginine] as the compound, how does the “change in cAMP levels, in words” value [1] read?
A: does not cause a detectable change

Q: What about the “in vivo threshold sensitivity” value [2] of the same compound?
A: ca. 1 nM

Q: And the “fraction of olfactory neurons responding” value [3]?
A: ~40%
